Test results published in ChEMBL document CHEMBL2040788, “Expanded Utility of the β-Glucuronide Linker: ADCs That Deliver Phenolic Cytotoxic Agents” (ACS Med Chem Lett, 2010).

Assays:
[1] = Cytotoxicity against CD70 deficient human L540cy cells expressing CD30 after 96 hrs; type: functional, cell-based
[2] = Chemical stability of the compound; type: physicochemical
CAKI-1 = assay: Cytotoxicity against CD30 deficient human Caki1 cells expressing CD70 after 96 hrs; type: functional, cell-based; details: CAKI-1, 96 h

For `C=C(C)CC(OC)[C@H](O)C(=O)N[C@@H](OC)[C@@H]1C[C@@H](O)C(C)(C)[C@@H](C[C@H](O)[C@@H](C)[C@H]2Cc3c(C)c(O)cc(O)c3C(=O)O2)O1` (stereo partly drawn) [IRCINIASTATIN A], the IC50 [1] was 0.7 nM, the Stability [2] was “Stable” and the IC50 (CAKI-1) was 0.3 nM.
